{"source": "patent US20260191933A1", "about": "“PHARMACEUTICAL COMBINATIONS AND USES THEREOF” (The University of Melbourne, priority 2022, published 2026)", "key": {"[1]": {"system": "12-week HFHS fed obese mice", "assay": "I.C.V. fluorosamine in obese mice: body weight, adiposity, energy expenditure, food intake", "assay_type": "in vivo, C57BL/6J mice", "details": "I.C.V. for 10 days", "experimental": "Metabolic measurements were undertaken in the Melbourne Mouse Metabolic Phenotyping Platform (The University of Melbourne, Australia). Glucose tolerance tests were performed on 6 h fasted conscious mice respectively by injecting D-glucose (2 mg/g of lean body mass and 1 mg/g lean mass for db/db and HFHS+STZ mice) into the peritoneal cavity and measuring glucose in tail blood immediately before and at 15, 30, 45, 60, 90 and 120 min after injection using an Accu-Check glucometer (Roche, Germany). The areas under glucose excursion curves were determined and expressed as mmol/l×min. Fasted (12 h fast) plasma insulin or glucose levels were determined using a Rat/Mouse Insulin ELISA (EZRMI-13K, Merck Millipore, CA) or an Accu-Check glucometer respectively. The HOMA-IR was calculated using the equation [(glucose×insulin)/405]. Adiposity was measured using TD-NMR minispec (Bruker Optics Inc., Billerica, MA).\nMice were acclimated for 24 h and then monitored for 48 h in an environmentally controlled Promethion Metabolic Screening System (Sable Systems International, NV) fitted with indirect open circuit calorimetry, food consumption and activity monitors to measure activity, caloric intake and energy expenditure. Respiratory quotients were calculated as the ratio of CO2 production over O2 consumption respiratory exchange ratio and energy expenditure was calculated using the Weir equation (Kcal h−1=60×(0.003941×VO2+0.001106×VCO2). To account for difference in body mass/composition energy expenditure was analysed and adjusted using ANCOVA using scripts available at the National Mouse Metabolic Phenotyping Centers (MMPC, Nashville, TN, USA) Energy Expenditure Analysis Page (https://www.mmpc.org/shared/regression.aspx).\nUnder isoflurane anaesthetic 12-week HFHS fed C57BL/6J or AgRP-Cas9 mice were implanted stereotaxically with guide cannulas into the right lateral ventricle (0.2 mm posterior, 1.0 mm lateral from bregma). Guide cannula was positioned 1.3 mm above the injection site (1 mm ventral to the surface of the skull). AgRP-Cas9 mice were treated with either AAV-gScrambled or AAV-gIR and underwent guide cannula placement 7 days post AAV administration. Mice were administered I.C.V. vehicle (ddH2O), fluorosamine (100 μg/animal/day or 250 μgl/animal/day) in a volume of 2 μl/animal and all compounds were delivered approximately 1 h before lights off (7 pm)."}, "[2]": {"system": "12-week HFHS fed obese mice", "assay": "Example 21: glycaemic control in treatment and off-treatment phase (GTT, ITT, fasting glucose)", "assay_type": "in vivo, C57BL/6J male mice", "details": "treatment phase", "description": "Under 2-5% (v/v) isoflurane in 1 L/min oxygen, 12-week-HFHS-diet-fed and aged-matched chow-fed C57BL/6J male mice were implanted stereotaxically with guide cannulas in the right lateral ventricle (measurement of the coordinates were described as Chapter 2; Anterior/Posterior: −1.00 mm, Medial/Lateral: +0.20 mm). Guide cannulas were made by polishing the shaft of hypodermic needles (19 Gauge, Livingstone, Australia) to 1.00 mm long. The tip of the guide cannula was positioned 1.00 mm above the target region (1.00 mm ventral to the surface of the mouse skull). The mice were allowed 2-3 days for recovery before further experimental manipulations.\nAwake 12-week-HFHS-diet-fed and aged-matched chow-fed C57BL/6J male mice were restrained by scruffing and inverted in the head-down position. […]\nGlucose tolerance test was conducted on 6-hrs fasted conscious mice by injecting D-glucose (2 mg/g of lean body mass) into the peritoneal cavity and measuring blood glucose levels by taking tail blood immediately at 0, 15, 30, 60, 90 and 120 mins after injection using an Accu-Check glucometer (Roche, Germany). The area under the glucose excursion curve was determined and represented as mmol/L×min. Fasted (24 hr fast) glucose level was measured using an Accu-Check glucometer. […]"}, "[3]": {"system": "insulin receptor signalling within the ARC (pAKT)", "assay": "Intranasal PZ6005: ARC pAKT +ve. cells after insulin", "assay_type": "in vivo, C57BL/6J mice", "details": "both doses, 14-day intranasal administration", "experimental": "Mice were injected intraperitoneally with vehicle (PBS) or insulin (3 mU/g, i.p., Actrapid, Nova Nordisk, Denmark) and mice were transcardially perfused (as described above) 15 min with 10% neutral buffered formalin. The brains were post-fixed for 16 h on a rocking platform at RT and then kept for two days in 30% sucrose in PBS to cryoprotect the tissue, before freezing on dry ice. 30 μm sections were cut in the coronal plane throughout the entire rostral-caudal extent of the hypothalamus. Sections were pre-treated for 10 mins in 0.3% glycine, washed in PBS-T and incubated for 10 min in 0.03% SDS. Sections were then blocked in 5% blocking buffer for 1 h at RT and incubated for 48 h with rabbit anti-p-AKT (Ser-473) (1:300; #4060, Cell Signaling Technology, Beverly, MA) in 1% blocking buffer. Sections were then incubated in 5% blocking buffer containing either goat anti-rabbit Alexa Fluor 647 (ab150083, Abcam, Cambridge, UK) or biotinylated goat anti-rabbit (BA-1000, Vector Laboratories, CA, no sodium azide in blocking buffer). […]"}, "ARC CSPG-ECM": {"system": "ARC CSPG-ECM", "assay": "I.C.V. PZ6005 and/or S.C. liraglutide, 28-day treatment: ARC CSPG-ECM (WFA)", "assay_type": "in vivo, C57BL/6j mice", "details": "PZ6005 100 μg/animal I.C.V. every other day first 14 days; liraglutide 200 μg/kg/day S.C. 28 days", "experimental": "All image quantification was performed in Image J (NIH) software (NIH, MA). Raw images underwent background subtraction using a rolling ball algorithm to minimize background and any potential variance in tissue autofluorescence. To quantify area and intensity of the CSPG-ECM within each brain region (ARC, VMH or RSG cortex) images were thresholded and binarized to create a region of interest (ROI) mask of only the CSPG-ECM. For each brain area, CSPG-ECM ROI area (μm^2) and intensity (sum of all pixel intensities within the ROI) was calculated. This process was automated to minimise bias and to account for differences in brain nuclei size across multiple images. Brain nuclei were defined in accordance with the Paxinos and Franklin mouse brain atlas (http://labs.gaidi.ca/mouse-brain-atlas/). The area and intensity of CSPG-ECM within each region was normalised to the respective control."}}, "data": [{"smiles": "CC(=O)NC1C(OC(C)=O)OC(COC(C)=O)[C@@H](F)C1OC(C)=O", "note": "(some centres unmarked) [PZ6005, per-O-acetylated-4-F-N-acetylglucosamine]", "values": [{"measurement": "adiposity", "setting": "[1]", "result": "reduced adiposity"}, {"measurement": "body weight", "setting": "[1]", "result": "promoted weight loss"}, {"measurement": "energy expenditure", "setting": "[1]; independently of ambulatory activity", "result": "enhanced energy expenditure"}, {"measurement": "food intake", "setting": "[1]; through enhanced satiety", "result": "supressed food intake"}, {"measurement": "glucose tolerance / glycaemic regulation", "setting": "[2]", "result": "improved glucose tolerance"}, {"measurement": "ARC pAKT +ve. cells", "setting": "[3]", "result": "robust increase"}, {"measurement": "ARC CSPG-ECM intensity reduced by, compared with the mice receiving liraglutide", "setting": "ARC CSPG-ECM", "result": "22.65±7.851", "unit": "%"}, {"measurement": "CSPG-ECM area lower than liraglutide group", "setting": "ARC CSPG-ECM", "result": "31.56±3.73", "unit": "%"}]}]}
